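Where inhibition never reached the appropriate level, the endpoint shown equals the highest concentration tested. Otherwise, values were interpolated linearly from a five-concentration, 48-hour dose response in 96-well plates. Here, GI50 denotes the concentration required for 50% inhibition of growth.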 Activity calls are given as the source filed them. Cut-off read from the data, not from the text of the source: active = GI50 up to about 1.1 µM and inactive = higher.
Experiments:
Test in all cases: NCI anticancer screen, dose series, 48 h
A498 = test system: A498
DU-145 = test system: DU-145
EKVX = test system: EKVX
HT-29 = test system: HT-29
IGROV-1 = test system: IGROV-1
KM12 = test system: KM12
M14 = test system: M14
Malme-3M = test system: Malme-3M
OVCAR-3 = test system: OVCAR-3
OVCAR-4 = test system: OVCAR-4
SF-295 = test system: SF-295
SK-MEL-2 = test system: SK-MEL-2
SK-MEL-5 = test system: SK-MEL-5
SN12C = test system: SN12C
SR = test system: SR
UACC-62 = test system: UACC-62
UO-31 = test system: UO-31
CCRF-CEM = test system: CCRF-CEM
MOLT-4 = test system: MOLT-4
T47D = test system: T47D

CNC/C(Cl)=N/S(=O)(=O)c1ccc(C)cc1
GI50 (A498): 20 µM (inactive)
GI50 (DU-145): 5.07 µM (inactive)
GI50 (EKVX): 15.6 µM (inactive)
GI50 (HT-29): 19.2 µM (inactive)
GI50 (IGROV-1): 17.2 µM (inactive)
GI50 (KM12): 13.8 µM (inactive)
GI50 (M14): 10.3 µM (inactive)
GI50 (Malme-3M): 9.66 µM (inactive)
GI50 (OVCAR-3): 12.4 µM (inactive)
GI50 (OVCAR-4): 10 µM (inactive)
GI50 (SF-295): 14.7 µM (inactive)
GI50 (SK-MEL-2): 15 µM (inactive)
GI50 (SK-MEL-5): 15 µM (inactive)
GI50 (SN12C): 9.75 µM (inactive)
GI50 (SR): 3.84 µM (inactive)
GI50 (UACC-62): 9.64 µM (inactive)
GI50 (UO-31): 12.1 µM (inactive)

c1ccc(/C(=N/Nc2ccncn2)c2ccccn2)cc1
GI50 (CCRF-CEM): 1.65 µM (inactive)
GI50 (DU-145): 34.6 µM (inactive)
GI50 (EKVX): 4.34 µM (inactive)
GI50 (HT-29): 0.883 µM (active)
GI50 (IGROV-1): 17 µM (inactive)
GI50 (KM12): 22 µM (inactive)
GI50 (M14): 10.3 µM (inactive)
GI50 (MOLT-4): 3.47 µM (inactive)
GI50 (OVCAR-3): 6.78 µM (inactive)
GI50 (OVCAR-4): 49.1 µM (inactive)
GI50 (SF-295): 23.1 µM (inactive)
GI50 (SK-MEL-2): 44.8 µM (inactive)
GI50 (SK-MEL-5): 15.4 µM (inactive)
GI50 (SN12C): 35 µM (inactive)
GI50 (SR): 10.5 µM (inactive)
GI50 (UACC-62): 26.4 µM (inactive)
GI50 (UO-31): 15.5 µM (inactive)

C=CC(=O)N1C/C(=C\c2ccc(N(C)C)cc2)C(=O)/C(=C/c2ccc(N(C)C)cc2)C1
GI50 (A498): > 100 µM (inactive)
GI50 (DU-145): > 100 µM (inactive)
GI50 (EKVX): > 100 µM (inactive)
GI50 (HT-29): 10.4 µM (inactive)
GI50 (IGROV-1): > 100 µM (inactive)
GI50 (KM12): 8.67 µM (inactive)
GI50 (M14): > 100 µM (inactive)
GI50 (MOLT-4): 25.8 µM (inactive)
GI50 (Malme-3M): > 100 µM (inactive)
GI50 (OVCAR-3): 41.3 µM (inactive)
GI50 (OVCAR-4): > 100 µM (inactive)
GI50 (SF-295): 18.5 µM (inactive)
GI50 (SK-MEL-2): > 100 µM (inactive)
GI50 (SK-MEL-5): > 100 µM (inactive)
GI50 (SN12C): > 100 µM (inactive)
GI50 (T47D): > 100 µM (inactive)
GI50 (UACC-62): 44.3 µM (inactive)
GI50 (UO-31): > 100 µM (inactive)

COc1ccc(C(CC(=O)C(C)(C)CN2CCCCC2)SCCS(=O)(=O)O)cc1 (stereo not drawn)
GI50 (A498): 26.2 µM (inactive)
GI50 (CCRF-CEM): 17.1 µM (inactive)
GI50 (DU-145): 66.1 µM (inactive)
GI50 (EKVX): 30.4 µM (inactive)
GI50 (HT-29): 26.2 µM (inactive)
GI50 (IGROV-1): 53.2 µM (inactive)
GI50 (KM12): 30.4 µM (inactive)
GI50 (M14): 18.7 µM (inactive)
GI50 (MOLT-4): 22.1 µM (inactive)
GI50 (Malme-3M): 20.9 µM (inactive)
GI50 (OVCAR-3): 12.8 µM (inactive)
GI50 (OVCAR-4): 34 µM (inactive)
GI50 (SF-295): 13.9 µM (inactive)
GI50 (SK-MEL-2): > 100 µM (inactive)
GI50 (SK-MEL-5): 20.9 µM (inactive)
GI50 (SN12C): 54.2 µM (inactive)
GI50 (SR): 14.3 µM (inactive)
GI50 (UACC-62): 37.3 µM (inactive)
GI50 (UO-31): 37.4 µM (inactive)

CC1OC(OC2C(OC(=O)[C@@H]3CC(C)(C)C[C@@H]4C5=CC[C@@H]6[C@@]7(C)C[C@H](O)[C@H](OC8OC(CO)C(O)C(O)C8O)[C@@](C)(CO)C7[C@H](O)C[C@@]6(C)[C@]5(C)C[C@@H](O)[C@H]43)OCC(O)C2O)C(O)C(O)C1O (stereo partly drawn)
GI50 (CCRF-CEM): > 15 µM (inactive)
GI50 (DU-145): > 15 µM (inactive)
GI50 (EKVX): 9.73 µM (inactive)
GI50 (HT-29): 11.5 µM (inactive)
GI50 (IGROV-1): > 15 µM (inactive)
GI50 (KM12): > 15 µM (inactive)
GI50 (M14): > 15 µM (inactive)
GI50 (MOLT-4): > 15 µM (inactive)
GI50 (OVCAR-3): > 15 µM (inactive)
GI50 (OVCAR-4): 12.9 µM (inactive)
GI50 (SF-295): > 15 µM (inactive)
GI50 (SK-MEL-2): > 15 µM (inactive)
GI50 (SK-MEL-5): > 15 µM (inactive)
GI50 (SN12C): 5.57 µM (inactive)
GI50 (T47D): > 15 µM (inactive)
GI50 (UACC-62): > 15 µM (inactive)
GI50 (UO-31): 6.49 µM (inactive)

Cc1cccc(C)c1NC(=O)C(C#N)C1=C(Cl)C(=O)c2ccccc2C1=O (stereo not drawn)
GI50 (A498): 14.8 µM (inactive)
GI50 (CCRF-CEM): 1.62 µM (inactive)
GI50 (DU-145): 14.5 µM (inactive)
GI50 (EKVX): 21.4 µM (inactive)
GI50 (HT-29): 18.6 µM (inactive)
GI50 (IGROV-1): 17 µM (inactive)
GI50 (KM12): 16.8 µM (inactive)
GI50 (M14): 10.1 µM (inactive)
GI50 (MOLT-4): 1.93 µM (inactive)
GI50 (Malme-3M): 15.2 µM (inactive)
GI50 (OVCAR-3): 11.3 µM (inactive)
GI50 (OVCAR-4): 16 µM (inactive)
GI50 (SF-295): 16.3 µM (inactive)
GI50 (SK-MEL-2): 14.4 µM (inactive)
GI50 (SK-MEL-5): 13 µM (inactive)
GI50 (SN12C): 17.4 µM (inactive)
GI50 (SR): 2.31 µM (inactive)
GI50 (UACC-62): 16.1 µM (inactive)
GI50 (UO-31): 13.6 µM (inactive)

CCOC(=O)C1=COC(C)(CCc2ccccc2)CC1=O (stereo not drawn)
GI50 (A498): > 100 µM (inactive)
GI50 (DU-145): > 100 µM (inactive)
GI50 (EKVX): > 100 µM (inactive)
GI50 (HT-29): 56.2 µM (inactive)
GI50 (KM12): 56.2 µM (inactive)
GI50 (M14): > 100 µM (inactive)
GI50 (MOLT-4): 43.2 µM (inactive)
GI50 (OVCAR-3): 80.2 µM (inactive)
GI50 (OVCAR-4): > 100 µM (inactive)
GI50 (SF-295): > 100 µM (inactive)
GI50 (SK-MEL-2): > 100 µM (inactive)
GI50 (SK-MEL-5): 94 µM (inactive)
GI50 (SN12C): > 100 µM (inactive)
GI50 (T47D): 47.2 µM (inactive)
GI50 (UACC-62): 55.7 µM (inactive)
GI50 (UO-31): 91.2 µM (inactive)

O=C(NNC(=O)c1ccncc1)C(=O)Nc1cc(Cl)c(Cl)cc1Cl
GI50 (A498): > 100 µM (inactive)
GI50 (CCRF-CEM): > 10 µM (inactive)
GI50 (EKVX): > 100 µM (inactive)
GI50 (HT-29): > 100 µM (inactive)
GI50 (IGROV-1): 45.6 µM (inactive)
GI50 (KM12): > 100 µM (inactive)
GI50 (M14): > 100 µM (inactive)
GI50 (MOLT-4): > 100 µM (inactive)
GI50 (Malme-3M): > 100 µM (inactive)
GI50 (OVCAR-3): > 100 µM (inactive)
GI50 (OVCAR-4): > 100 µM (inactive)
GI50 (SF-295): > 100 µM (inactive)
GI50 (SK-MEL-2): > 100 µM (inactive)
GI50 (SK-MEL-5): > 100 µM (inactive)
GI50 (SN12C): > 100 µM (inactive)
GI50 (T47D): > 100 µM (inactive)
GI50 (UACC-62): > 100 µM (inactive)
GI50 (UO-31): > 100 µM (inactive)

COc1c(C)c(C/C=C(\C)CC/C=C(\C)CC/C=C(\C)CC/C=C(\C)CCC=C(C)C)c(OC)c(OC)c1OC
GI50 (CCRF-CEM): 23.9 µM (inactive)
GI50 (DU-145): > 100 µM (inactive)
GI50 (EKVX): 44.4 µM (inactive)
GI50 (HT-29): 88.3 µM (inactive)
GI50 (IGROV-1): 26.9 µM (inactive)
GI50 (KM12): 14.7 µM (inactive)
GI50 (M14): 50.9 µM (inactive)
GI50 (MOLT-4): 40.6 µM (inactive)
GI50 (OVCAR-3): > 100 µM (inactive)
GI50 (OVCAR-4): 19.9 µM (inactive)
GI50 (SF-295): 19.9 µM (inactive)
GI50 (SK-MEL-2): > 100 µM (inactive)
GI50 (SK-MEL-5): 16.7 µM (inactive)
GI50 (SN12C): 22.9 µM (inactive)
GI50 (SR): 22.9 µM (inactive)
GI50 (UACC-62): > 100 µM (inactive)
GI50 (UO-31): 21.6 µM (inactive)

COC(=O)C1Cc2c(OC)ccc(OC)c2CC(C(=O)OC)C1=O (stereo not drawn)
GI50 (A498): > 100 µM (inactive)
GI50 (CCRF-CEM): > 100 µM (inactive)
GI50 (DU-145): > 100 µM (inactive)
GI50 (EKVX): > 100 µM (inactive)
GI50 (HT-29): > 100 µM (inactive)
GI50 (IGROV-1): > 100 µM (inactive)
GI50 (KM12): > 100 µM (inactive)
GI50 (M14): > 100 µM (inactive)
GI50 (MOLT-4): > 100 µM (inactive)
GI50 (Malme-3M): > 100 µM (inactive)
GI50 (OVCAR-3): > 100 µM (inactive)
GI50 (OVCAR-4): > 100 µM (inactive)
GI50 (SF-295): > 100 µM (inactive)
GI50 (SK-MEL-5): > 100 µM (inactive)
GI50 (SN12C): > 100 µM (inactive)
GI50 (T47D): > 100 µM (inactive)
GI50 (UACC-62): > 100 µM (inactive)
GI50 (UO-31): 56 µM (inactive)

CCC[C@@H]1C(=O)N=C(N)N1C(=O)OCc1ccccc1
GI50 (A498): > 100 µM (inactive)
GI50 (DU-145): > 100 µM (inactive)
GI50 (EKVX): > 100 µM (inactive)
GI50 (HT-29): > 100 µM (inactive)
GI50 (IGROV-1): > 100 µM (inactive)
GI50 (KM12): > 100 µM (inactive)
GI50 (MOLT-4): > 100 µM (inactive)
GI50 (Malme-3M): > 100 µM (inactive)
GI50 (OVCAR-3): > 100 µM (inactive)
GI50 (OVCAR-4): > 100 µM (inactive)
GI50 (SF-295): > 100 µM (inactive)
GI50 (SK-MEL-2): > 100 µM (inactive)
GI50 (SK-MEL-5): > 100 µM (inactive)
GI50 (SN12C): > 100 µM (inactive)
GI50 (SR): > 100 µM (inactive)
GI50 (UACC-62): > 100 µM (inactive)
GI50 (UO-31): > 100 µM (inactive)

Reference: ChEMBL document CHEMBL1201862, “PubChem BioAssay data set” (2004)
